Reference: ChEMBL document CHEMBL2057163, “Pyridofuran substituted pyrimidine derivatives as HCV replication (replicase) inhibitors” (Bioorg Med Chem Lett, 2012)

How the values were obtained:
[1] = Cytotoxicity against human hepatoma cells assessed as decrease in GAPDH RNA level after 3 days by RT-PCR analysis; format: cell-based
[2] = Selectivity ratio of CC50 for human hepatoma cells by MTS assay to EC50 for Hepatitis C virus 1b con1; format: ADME; conditions: read-out: Ratio CC50/EC50
[3] = Cytotoxicity against human hepatoma cells after 3 days by MTS assay; format: cell-based
Hepatitis C virus = assay: Antiviral activity against Hepatitis C virus 1b con1 infected in human hepatoma cells assessed as decrease in replicon RNA level after 3 days by RT-PCR analysis; format: functional, organism-based, Hepacivirus hominis; conditions: Con1, 72 h
[4] = Clearance in dog at 3 mg/kg, po; format: ADME, organism-based, Canis lupus familiaris; parameters: dose 3 mg/kg, route oral; conditions: in vivo
Liver = assay: Drug uptake in rat liver assessed per gram of tissue at 10 mg/kg, po measured at 6 hrs; format: ADME, organism-based; parameters: dose 10 mg/kg, route oral; conditions: in vivo
[5] = Oral bioavailability in monkey at 3 mg/kg; format: ADME, organism-based, Macaca mulatta; conditions: rhesus monkey, in vivo
[6] = AUC in dog at 3 mg/kg, po; format: ADME, organism-based, Canis lupus familiaris; parameters: dose 3 mg/kg, route oral; conditions: plasma
[7] = Cytotoxicity against human hepatoma cells assessed as inhibition of [14C]thymidine incorporation after 3 days by scintillation proximity assay; format: cell-based
[8] = Clearance in monkey at 3 mg/kg, po; format: ADME, organism-based, Macaca mulatta; parameters: dose 3 mg/kg, route oral; conditions: rhesus monkey, in vivo
[9] = Half life in monkey at 3 mg/kg, po; format: ADME, organism-based, Macaca mulatta; parameters: dose 3 mg/kg, route oral; conditions: rhesus monkey, in vivo
[10] = Half life in dog at 3 mg/kg, po; format: ADME, organism-based, Canis lupus familiaris; parameters: dose 3 mg/kg, route oral; conditions: in vivo
[11] = Oral bioavailability in rat at 10 mg/kg; format: ADME, organism-based; conditions: in vivo
[12] = Clearance in rat at 10 mg/kg, po; format: ADME, organism-based; parameters: dose 10 mg/kg, route oral; conditions: in vivo
[13] = AUC in monkey at 3 mg/kg, po; format: ADME, organism-based, Macaca mulatta; parameters: dose 3 mg/kg, route oral; conditions: rhesus monkey, plasma
[14] = Half life in rat at 10 mg/kg, po; format: ADME, organism-based; parameters: dose 10 mg/kg, route oral; conditions: in vivo
[15] = Oral bioavailability in dog at 3 mg/kg; format: ADME, organism-based, Canis lupus familiaris; conditions: in vivo
[16] = AUC (0 to 6 hrs) in rat at 10 mg/kg, po; format: ADME, organism-based; parameters: time < 6 hr, dose 10 mg/kg, route oral; conditions: plasma

EC50 (Hepatitis C virus) [µM]	CL/F [4] [mL/min/kg]	liver concentration (Liver) [ng/g]	bioavailability [5] [%]	AUC [6] [µM·h]	CL/F [8] [mL/min/kg]	half-life [9] [h]	half-life [10] [h]	bioavailability [11] [%]	CL/F [12] [mL/min/kg]	AUC [13] [µM·h]	half-life [14] [h]	bioavailability [15] [%]	AUC(0-t) at 6 h [16] [µM·h]	Compound	CC50 at 72 h [1] [µM]	selectivity ratio [2]	CC50 at 72 h [3] [µM]	CC50 at 72 h [7] [µM]
0.02														CNc1nc(Cl)c(-c2cc3cc(OC)nc(C)c3o2)c(N[C@@H]2C[C@H](CO)[C@@H](O)[C@H]2O)n1	> 25	> 1000	25	
	9.5	10200	100	1.6	16	2.8	2.1	97	8	10.2	3.3	15	45.5	CCOc1cc2cc(-c3c(C)nc(NCC4CC4)nc3N[C@@H]3C[C@H](CO)[C@@H](O)[C@H]3O)oc2c(C)n1.Cl				5
	13	1730	69	6.4	15	7	2.1	39	27	5.2	4.2	83	5.3	CCc1cc2cc(-c3c(C)nc(NCC(F)(F)F)nc3N[C@@H]3C[C@H](CO)[C@@H](O)[C@H]3O)oc2cn1.Cl				4
